pEC50: −log10 of the molar value. Converted amounts (≈) assume the structure as drawn.
Assays:
[1] = Phosphate-buffered saline (PBS) solubility of compounds; type: physicochemical; settings: aqueous buffer, thermodynamic from solid, PBS pH 7.5, 0.5 mg/mL, vortexed 90 min, filtered, LC-MS/MS, read-out: Solubility Range
Procedure: PBS solutions (pH 7.5) were prepared according to the following compositions and stored at 4° C. Test compounds were dissolved in PBS (pH 7.5) at 0.5 mg/mL and vortexed for 90 min. The PBS solution was sequentially filtered through a 0.45, 1.2, […] syringe filter. Concentration of test compounds were determined using LC-MS/MS with appropriate dilution of the samples.

C57BL/6 female mice = test: Scopolamine induced tear volume reduction model; type: in vivo, mouse; settings: scopolamine-injected mice, ophthalmic solution topically on both eyes 3 times a day, phenol red thread; average if evaluated twice
Procedure: Seven-week old C57BL/6 female mice were used.
Scopolamine hydrobromide was purchased from Sigma Aldrich (Cat No. S0929), dissolved in saline, and sterilized prior to use.
Zone-Quick phenol red thread was obtained from Menicon.
The test compounds used in this experiment were dissolved in PBS containing 1% of surfactant.
Scopolamine (0.2 ml of 2.5 mg/mL solution) was injected subcutaneously 3 times a day to induce a decrease in the tear volume in the mouse. At the same time, the ophthalmic solution of test compounds or vehicle were topically administered onto both eyes 3 times a day. Tear volume was measured by phenol red thread before dosing (basal level) and 1 hour after the last administration of scopolamine and ophthalmic solution. The results were obtained by measuring the length of the phenol red thread turning red by tears. The schedule of study is expressed as FIG. 1.
If the test compound was evaluated twice, the average value was used.

human wild type-CFTR [2] = target: T1, human wild type-CFTR (Homo sapiens, UniProt P13569); test: Short-circuit current measurement; type: cell-based; set-up: expressed in transfected cells; settings: FRT cells expressing human wild type-CFTR; Forskolin 20 μM signal used as 100% activity; read-out: Short-circuit current measurement (EC50) Concentration range
T1 sequence (P13569 whole entry): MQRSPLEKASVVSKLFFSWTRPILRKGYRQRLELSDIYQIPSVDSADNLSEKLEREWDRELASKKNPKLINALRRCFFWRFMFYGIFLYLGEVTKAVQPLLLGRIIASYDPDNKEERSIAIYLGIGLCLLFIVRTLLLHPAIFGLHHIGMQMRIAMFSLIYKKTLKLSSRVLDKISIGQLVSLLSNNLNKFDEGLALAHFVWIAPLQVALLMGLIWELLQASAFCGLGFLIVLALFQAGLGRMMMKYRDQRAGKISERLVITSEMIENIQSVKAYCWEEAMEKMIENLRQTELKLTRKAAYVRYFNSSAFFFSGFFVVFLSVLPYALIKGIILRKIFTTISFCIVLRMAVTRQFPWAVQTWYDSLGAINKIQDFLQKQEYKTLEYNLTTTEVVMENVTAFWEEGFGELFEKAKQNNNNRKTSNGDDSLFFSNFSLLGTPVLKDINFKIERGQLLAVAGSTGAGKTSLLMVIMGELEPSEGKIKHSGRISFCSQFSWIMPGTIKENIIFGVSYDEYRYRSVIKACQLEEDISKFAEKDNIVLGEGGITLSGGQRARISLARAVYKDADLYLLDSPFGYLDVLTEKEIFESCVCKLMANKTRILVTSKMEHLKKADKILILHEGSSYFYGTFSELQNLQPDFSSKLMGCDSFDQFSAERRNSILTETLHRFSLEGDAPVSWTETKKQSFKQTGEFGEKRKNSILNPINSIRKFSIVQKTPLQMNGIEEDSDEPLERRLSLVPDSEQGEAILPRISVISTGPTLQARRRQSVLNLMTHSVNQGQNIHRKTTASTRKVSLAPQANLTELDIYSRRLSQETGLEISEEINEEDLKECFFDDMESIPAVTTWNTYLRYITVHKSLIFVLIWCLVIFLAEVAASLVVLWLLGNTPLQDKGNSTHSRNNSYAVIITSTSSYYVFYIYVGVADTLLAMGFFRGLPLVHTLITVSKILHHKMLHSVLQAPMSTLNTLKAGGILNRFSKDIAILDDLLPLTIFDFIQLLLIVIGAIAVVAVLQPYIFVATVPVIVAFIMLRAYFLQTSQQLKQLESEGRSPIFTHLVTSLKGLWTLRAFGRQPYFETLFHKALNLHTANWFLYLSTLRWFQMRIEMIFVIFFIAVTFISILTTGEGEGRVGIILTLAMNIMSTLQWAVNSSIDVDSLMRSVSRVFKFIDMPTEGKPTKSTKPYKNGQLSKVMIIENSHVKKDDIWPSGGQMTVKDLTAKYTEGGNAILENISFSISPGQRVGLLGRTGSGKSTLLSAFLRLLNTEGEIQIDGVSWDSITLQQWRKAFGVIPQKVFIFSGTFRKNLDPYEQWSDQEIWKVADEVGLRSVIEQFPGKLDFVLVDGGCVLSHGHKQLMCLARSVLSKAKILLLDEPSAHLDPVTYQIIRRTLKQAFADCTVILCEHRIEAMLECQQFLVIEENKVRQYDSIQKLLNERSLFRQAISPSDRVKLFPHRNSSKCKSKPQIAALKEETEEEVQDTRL
Source text: Forskolin (Tocris cat. #1099), CFTRinh-172 (Tocris cat. #3430), amphotericin B (Tocris cat. #6930), dimethyl sulfoxide (Sigma cat. #D4540), EVC4000 Multi-Channel V/I Clamp (World Precision Instruments, Sarasota, FL), PowerLab 4/35 (AD Instruments, Castle Hill, Australia), Labchart Pro 7, GraphPad Prism 5 (GraphPad Software, Inc.). Fisher rat thyroid (FRT) cells expressing human wild type-CFTR were provided by Dr. Alan Verkman (University of California, San Francisco) and grown in DMEM/F12 medium (1:1) supplemented with 10% FBS, 2 mM glutamine, 100 units/ml penicillin and 100 μg/ml streptomycin. Snapwell inserts containing CF TR-expressing FRT cells were mounted in Ussing chambers (Physiologic Instruments, San Diego, CA). […] Forskolin, test compounds, and CFTRinh-172 were added to the apical and basolateral bath solution. Apical membrane current and short-circuit current were measured with an EVC4000 Multi-Channel V/I Clamp (World Precision Instruments, Sarasota, FL) and recorded using PowerLab 4/35 (AD Instruments, Castle Hill, Australia). Data were collected and analyzed with ADInstruments acquisition software Labchart Pro 7 software. The sampling rate was 4 Hz.

human wild type-CFTR [3] = target: T1, human wild type-CFTR; test: Cell-based YFP assay; set-up: expressed in transfected cells; host or cells: CHO-K1 (Chinese hamster ovary); settings: CHO-K1 cells expressing human wild type-CFTR and YFP-H148Q/I152L; forskolin 20 μM = 100% activity; read-out: Cell-based YFP Assay (EC50) Concentration Range
In short: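 I⁻-driven YFP fluorescence quenching at 37 °C: 2 s baseline, addition of 140 mM iodide solution, then 14 s of readings at 0.4 s intervals. Cells were CHO-K1 expressing human wild-type CFTR plus YFP-H148Q/I152L. EC50 derived from averaged triplicates.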

SMILES | solubility at 90 min [1] [µg/mL] | Ratio of tear volume (test compound to vehicle) (C57BL/6 female mice) | pEC50 (human wild type-CFTR [2]) | pEC50 (human wild type-CFTR [3])
CCOc1ccc(NC(=O)c2cc3nccc(-c4ccc(OC)c(OC)c4)n3n2)cc1 [Compound 3, 7-(3,4-dimethoxyphenyl)-N-(4-ethoxyphenyl)pyrazolo[1,5-a]pyrimidine-2-carboxamide] | < 0.1 | 1.20 | > 6.70 | > 6.70
COc1ccc(-c2ccnc3cc(C(=O)NC45CCC(C(=O)N6CCOCC6)(CC4)CC5)nn23)cc1OC [Compound 186, 7-(3,4-dimethoxyphenyl)-N-(4-(morpholine-4-carbonyl)bicyclo[2.2.2]octan-1-yl)pyrazolo[1,5-a] pyrimidine-2-carboxamide] | > 10 | 1.05 | 5.70 to 6.70 | > 6.70
COC(=O)c1ccc(NC(=O)c2cc3nccc(-c4ccc(OC)c(OC)c4)n3n2)cc1F [Compound 141, methyl 4-(7-(3,4-dimethoxyphenyl)pyrazolo [1,5-a]pyrimidine-2-carboxamido)-2-fluorobenzoate] | < 0.1 | 1.34 | > 6.70 | > 6.70
COc1ccc(-c2ccnc3cc(C(=O)Nc4ccc(N5CCC6(CC5)OCCO6)cc4)nn23)cc1OC [Compound 274, N-(4-(1,4-dioxa-8-azaspiro[4.5]decan-8-yl)phenyl)-7-(3,4-dimethoxyphenyl)pyrazolo [1,5-a]pyrimidine-2-carboxamide] | < 0.1 | 1.07 | > 6.70 | > 6.70
COc1ccc(-c2ccnc3cc(C(=O)N4CCN(C(=O)c5c(F)c(F)c(F)c(F)c5F)[C@@H](C)C4)nn23)cc1OC [Compound 259, (S)-(7-(3,4-dimethoxyphenyl)pyrazolo[1,5-a]pyrimidin-2-yl) (3-methyl-4-(perfluorobenzoyl)piperazin-1-yl)methanone] | 0.1 to 10 (≈ 0.174 to 17.4 µM) | 0.94 | 5.70 to 6.70 | 5.70 to 6.70
COc1ccc(-c2ccnc3cc(C(=O)N4CCN(Cc5c(F)cccc5F)CC4)nn23)cc1OC [Compound 212, (4-(2,6-difluorobenzyl)piperazin-1-yl)(7-(3,4-dimethoxyphenyl)pyrazolo [1,5-a]pyrimidin-2-yl)methanone] | 0.1 to 10 (≈ 0.203 to 20.3 µM) | 1.43 | ≤ 5.70 | > 6.70
COc1ccc(-c2ccnc3cc(C(=O)NC45CCC(C(=O)O)(CC4)CC5)nn23)cc1OC [Compound 149, 4-(7-(3,4-dimethoxyphenyl)pyrazolo[1,5-a]pyrimidine-2-carboxamido)bicyclo[2.2.2]octane-1-carboxylic acid] | > 10 | 1.26 | ≤ 5.70 | 5.70 to 6.70
COC(=O)C12CC(NC(=O)c3cc4nccc(-c5ccc(OC)c(OC)c5)n4n3)(C1)C2 [Compound 36, methyl 3-(7-(3,4-dimethoxyphenyl)pyrazolo[1,5-a]pyrimidine-2-carboxamido)bicyclo[1.1.1]pentane-1-carboxylate] | 0.1 to 10 (≈ 0.237 to 23.7 µM) | 1.23 | ≤ 5.70 | 5.70 to 6.70
COc1ccc(NC(=O)c2cc3nccc(-c4ccc(OC)c(OC)c4)n3n2)cc1 [Compound 6, 7-(3,4-dimethoxyphenyl)-N-(4-methoxyphenyl)pyrazolo[1,5-a]pyrimidine-2-carboxamide] | < 0.1 | 1.58 | > 6.70 | > 6.70
COc1ccc(-c2ccnc3cc(C(=O)Nc4ccc(NC(=O)CNC(=O)OC(C)(C)C)cc4)nn23)cc1OC [Compound 280, tert-butyl (2-((4-(7-(3,4-dimethoxyphenyl)pyrazolo [1,5-a]pyrimidine-2-carboxamido)phenyl)amino)-2-oxoethyl)carbamate] | < 0.1 | 1.32 | > 6.70 | > 6.70
COc1ccc(-c2ccnc3cc(C(=O)N[C@H]4CC[C@@H](C(=O)N5CCOCC5)CC4)nn23)cc1OC [Compound 72, 7-(3,4-dimethoxyphenyl)-N-((1S,4S)-4-(morpholine-4-carbonyl)cyclohexyl) pyrazolo[1,5-a]pyrimidine-2-carboxamide] | > 10 | 1.06 | ≤ 5.70 | 5.70 to 6.70
COc1ccc(-c2ccnc3cc(C(=O)Nc4ccc(C(=O)N5CCN(C)CC5)cc4F)nn23)cc1OC [Compound 158, 7-(3,4-dimethoxyphenyl)-N-(2-fluoro-4-(4-methylpiperazine-1-carbonyl)phenyl)pyrazolo[1,5-a]pyrimidine-2-carboxamide] | < 0.1 | 1.40 | > 6.70 | > 6.70
COc1ccc(-c2ccnc3cc(C(=O)N[C@H]4CC[C@H](O)CC4)nn23)cc1OC [Compound 69, 7-(3,4-dimethoxyphenyl)-N-((1R,4R)-4-hydroxycyclohexyl)pyrazolo [1,5-a]pyrimidine-2-carboxamide] | > 10 | 0.76 | ≤ 5.70 | 5.70 to 6.70
COc1ccc(-c2ccnc3cc(C(=O)Nc4ccc(C(=O)O)cc4C)nn23)cc1OC [Compound 126, 4-(7-(3,4-dimethoxyphenyl)pyrazolo[1,5-a]pyrimidine-2-carboxamido)-3-methylbenzoic acid] | 0.1 to 10 (≈ 0.231 to 23.1 µM) | 0.97 | ≤ 5.70 | 5.70 to 6.70
COc1ccc(-c2ccnc3cc(C(=O)Nc4ccc(C(=O)N5CCN(C(C)C)CC5)cc4)nn23)cc1OC [Compound 159, 7-(3,4-dimethoxyphenyl)-N-(4-(4-isopropylpiperazine-1-carbonyl)phenyl)pyrazolo[1,5-a]pyrimidine-2-carboxamide] | 0.1 to 10 (≈ 0.189 to 18.9 µM) | 2.11 | 5.70 to 6.70 | 5.70 to 6.70
COC(=O)c1ccc(NC(=O)c2cc3nccc(-c4ccc(OC)c(OC)c4)n3n2)cc1Cl [Compound 140, methyl 2-chloro-4-(7-(3,4-dimethoxyphenyl)pyrazolo[1,5-a]pyrimidine-2-carboxamido)benzoate] | < 0.1 | 1.48 | > 6.70 | > 6.70

Reference: patent US20240199623A1 (ILDONG PHARMACEUTICAL CO., LTD., priority 2020, published 2024)
